From patent publication US20260184726A1, “HETEROCYCLIC COMPOUNDS AS KINASE INHIBITORS, COMPOSITIONS, AND METHODS OF USE THEREOF” (JS INNOMED HOLDINGS LTD., priority 2022, published 2026)
Where two headings read alike, the source gives them in different places.

Legend:
[1] = target: T1, human RET kinase (Homo sapiens, UniProt P07949); test: RET Kinase Assay (mobility shift assay, ATP at Km); assay type: biochemical; conditions: 23 μM ATP (Km), read-out: RET Enzymatic Activity
T1 construct: purchased Carna 08-159
Protocol: Compounds were tested by Mobility shift assay with ATP concentration at Km. The assay used human RET kinase (Carna 08-159). Test compounds were prepared and diluted in DMSO in 3-fold serial dilutions to 50× of the final testing concentrations. The compounds were then further diluted to 5× by the kinase reaction buffer (50 mM HEPES pH 7.5, 0.0015% Brij-35). The enzymatic reaction for compound testing was performed in a white 384-well polypropylene plate (Corning 3573) with a total reaction volume of 25 μl containing 7 nM RET, 3 μM peptide substrate FAM-P2 (GL Biochem 112394), and 23 μM ATP (Sigma A7699-1G). The assay started with loading RET diluted in kinase reaction buffer to wells, followed by addition of equal volume of 5× compounds for 15-min incubation at the room temperature for pre-treatment. The enzymatic reaction was initiated by addition of mixture of the substrate and ATP prepared in kinase reaction buffer. After incubation at 28° C. for one hour, 25 μl of stopper buffer (a mixture of 100 mM HEPES pH 7.5 buffer, 0.015% Brij-35, 50 mM EDTA and 0.2% of coating reagent 3 (Cliper Lifesciences)). After 30 minutes of incubation at room temperature, the plate was read in a Caliper. Percent of control was calculated as the percentage of compound-treated vs 2% DMSO vehicle-treated. The dose-response curves were generated and the IC50 values were calculated by nonlinear sigmoid curve fitting using XLFit.

[2] = target: T2, human Aurora B kinase (Homo sapiens, UniProt Q96GD4); test: Aurora B Kinase Assay (mobility shift assay, ATP at Km); assay type: biochemical; conditions: 15 μM ATP (Km), read-out: AurB Enzymatic Activity
T2 construct: purchased Carna 05-102
Protocol: Compounds were tested by Mobility shift assay with ATP concentration at Km. The assay used human Aurora B kinase (Carna 05-102). Test compounds were prepared and diluted in DMSO in 3-fold serial dilutions to 50× of the final testing concentrations. The compounds were then further diluted to 5× by the kinase reaction buffer (50 mM HEPES pH 7.5, 0.0015% Brij-35). The enzymatic reaction for compound testing was performed in a white 384-well polypropylene plate (Corning 3573) with a total reaction volume of 25 μl containing 9 nM Aurora B, 3 μM peptide substrate FAM-P21 (GL Biochem 116370), and 15 μM ATP (Sigma A7699-1G). The assay started with loading Aurora B diluted in kinase reaction buffer to wells, followed by addition of equal volume of 5× compounds for 15-min incubation at the room temperature for pre-treatment. The enzymatic reaction was initiated by addition of mixture of the substrate and ATP prepared in kinase reaction buffer. After incubation at 28° C. for one hour, 25 μl of stopper buffer (a mixture of 100 mM HEPES pH 7.5 buffer, 0.015% Brij-35, 50 mM EDTA and 0.2% of coating reagent 3 (Cliper Lifesciences)). After 30 minutes of incubation at room temperature, the plate was read in a Caliper. Percent of control was calculated as the percentage of compound-treated vs 2% DMSO vehicle-treated. The dose-response curves were generated and the IC50 values were calculated by nonlinear sigmoid curve fitting using XLFit.

[3] = tested on: BAF3 cells; test: BAF3 Cell Proliferation Assay (CellTiter-Glo, without RET driven, IL-3); assay type: cell-based; conditions: Mus musculus; growth inhibition in BAF3 cells, 72 hours, with IL-3; read-out: BAF3 Cellular Activity
Protocol: Compounds disclosed herein were tested for the inhibition BAF3 cells proliferation without RET driven by CellTiter-Glo assay. In this assay, a complete media was prepared by adding 10% fetal bovine serum and 1 ng/ml IL-3 to RPMI-1640 medium (Life technology) for BAF3 cells. BAF3 cells were added to each of 88 wells of a 96 well plate at a seeding density of 2,000 cells/well/95 μL. The cells were allowed to attach to the plate by incubating at 37° C. for 24 hours. The compound was dissolved in DMSO (SIGMA). A solution of test compound was prepared in complete media by serial dilution to obtain the following concentrations: 200 μM, 66.7 μM, 22.2 μM, 7.4 μM, 2.5 μM, 0.82 μM, 0.27 μM, 0.091 μM and […]. The test compound solution (5 μL) was added to each of 80 cell-containing wells. The final concentrations of the compound were following: 10 μM, 3.33 μM, 1.11 μM, 0.37 μM, 0.12 μM, 0.041 μM, 0.014 μM, 0.0046 μM and 0.0015 μM. The final concentration of DMSO is 0.1%. To the 8 remaining cell-containing wells, only complete media (containing 0.1% DMSO) was added to form a control group in order to measure maximal proliferation. To the remaining 8 empty wells, complete media was added to for a vehicle control group in order to measure background. The plates were incubated at 37° C. for 72 hours. 50 μl of CellTiter-Glo® Reagent was added to each well. The contents were mixed for 2 minutes on an orbital shaker to induce cell lysis, and then were incubated at room temperature for 10 minutes to stabilize luminescent signal. Luminescence was recorded on Paradigm. Cell viability (CV %) was calculated relative to vehicle (DMSO) treated control wells. The IC50 was calculated using GraphPad Prism.

[4] = target: T3, BAF3-KIF5B-RET cells (Homo sapiens, UniProt P07949); test: BAF3-KIF5B-RET Cell Proliferation Assay (CellTiter-Glo); assay type: cell-based; conditions: growth inhibition, 72 hours
T3 construct: fused on or other part: P33176 (Kinesin-1 heavy chain)
Protocol: (§1) Compounds disclosed herein were tested for the inhibition of RET by a cancer cell proliferation assay commonly known as CellTiter-Glo assay. In this assay, a complete media was prepared by adding 10% fetal bovine serum to RPMI-1640 medium (Life technology) for RET-driven cancer cells (BAF3-FIF5B-RET, Ba/F3-KIF5B-RET-G810R, Ba/F3-TEL-RET-M918T or Ba/F3-KIF5B-RET-V804M). Individual RET-driven type of cells were added to each of 88 wells of a 96 well plate at a seeding density of 2,000 cells/well/95 μL. The cells were allowed to attach to the plate by incubating at 37° C. for 24 hours. The compound was dissolved in DMSO (SIGMA). A solution of test compound was prepared in complete media by serial dilution to obtain the following concentrations: 20 μM, 6.67 μM, 2.22 μM, 0.74 μM, 0.25 μM, 0.082 μM, 0.027 μM, 0.0091 μM and 0.0030 μM. The test compound solution (5 μL) was added to each of 80 cell-containing wells. The final concentrations of the compound were following: 1 μM, 0.33 μM, 0.11 μM, 0.037 μM, 0.012 μM, 0.0041 μM, 0.0014 μM, 0.00046 μM and 0.00015 μM. The final concentration of DMSO is 0.1%. To the 8 remaining cell-containing wells, only complete media (containing 0.1% DMSO) was added to form a control group in order to measure maximal proliferation. To the remaining 8 empty wells, complete media was added to for a vehicle control group in order to measure background. The plates were incubated at 37° C. for 72 hours. 50 μl of CellTiter-Glo® Reagent was added to each well. Mix contents for 2 minutes on an orbital shaker to induce cell lysis. Incubate at room temperature for 10 minutes to stabilize luminescent signal. Record luminescence on Paradigm. Cell viability (CV %) was calculated relative to vehicle (DMSO) treated control wells. The IC50 was calculated using GraphPad Prism.

[5] = target: T4, Ba/F3-KIF5B-RET-V804M cells (Homo sapiens, UniProt P07949, V804M, cells depend on it); test: Ba/F3-KIF5B-RET-V804M Cell Proliferation Assay (CellTiter-Glo); assay type: cell-based; conditions: growth inhibition, 72 hours; Table 3; read-out: BZ/F3-KIF5B-RET V804M
T4 construct: fused on or other part: P33176 (Kinesin-1 heavy chain)
Protocol: as §1

[6] = target: T5, Ba/F3-KIF5B-RET-G810R cells (Homo sapiens, UniProt P07949, G810R, cells depend on it); test: Ba/F3-KIF5B-RET-G810R Cell Proliferation Assay (CellTiter-Glo); assay type: cell-based; conditions: growth inhibition, 72 hours; Table 3
T5 construct: fused on or other part: P33176 (Kinesin-1 heavy chain)
Protocol: as §1

[7] = target: BA/F3-KIF5B-RET M918T cells (Homo sapiens, UniProt P07949, M918T, cells depend on it, form not given); test: Ba/F3 RET-M918T Cell Proliferation Assay (CellTiter-Glo); assay type: cell-based; conditions: growth inhibition, 72 hours; Table 3
Protocol: as §1

[8] = target: T6, human KDR kinase (Homo sapiens, UniProt P35968); test: KDR Kinase Assay (mobility shift assay, ATP at Km); assay type: biochemical; conditions: 92 μM ATP (Km), read-out: KDR Enzymatic Activity
T6 construct: purchased Carna 08-191
Protocol: Compounds were tested by Mobility shift assay with ATP concentration at Km. The assay used human KDR kinase (Carna 08-191). Test compounds were prepared and diluted in DMSO in 3-fold serial dilutions to 50× of the final testing concentrations. The compounds were then further diluted to 5× by the kinase reaction buffer (50 mM HEPES pH 7.5, 0.0015% Brij-35). The enzymatic reaction for compound testing was performed in a white 384-well polypropylene plate (Corning 3573) with a total reaction volume of 25 μl containing 1.2 nM KDR, 3 μM peptide substrate FAM-P22 (GL Biochem 112393), and 92 μM ATP (Sigma A7699-1G). The assay started with loading RET diluted in kinase reaction buffer to wells, followed by addition of equal volume of 5× compounds for 15-min incubation at the room temperature for pre-treatment. The enzymatic reaction was initiated by addition of mixture of the substrate and ATP prepared in kinase reaction buffer. After incubation at 28° C. for one hour, 25 μl of stopper buffer (a mixture of 100 mM HEPES pH 7.5 buffer, 0.015% Brij-35, 50 mM EDTA and 0.2% of coating reagent 3 (Cliper Lifesciences)). After 30 minutes of incubation at room temperature, the plate was read in a Caliper. Percent of control was calculated as the percentage of compound-treated vs 2% DMSO vehicle-treated. The dose-response curves were generated and the IC50s were calculated by nonlinear sigmoid curve fitting using XLFit.

[9] = Table 2, read-out: BA/F3-KIF5B-RET Cellular activity
[10] = Table 3, read-out: BA/F3-KIF5B-RET

T3 sequence (P07949 whole entry, change not shown, the tested form may be a part): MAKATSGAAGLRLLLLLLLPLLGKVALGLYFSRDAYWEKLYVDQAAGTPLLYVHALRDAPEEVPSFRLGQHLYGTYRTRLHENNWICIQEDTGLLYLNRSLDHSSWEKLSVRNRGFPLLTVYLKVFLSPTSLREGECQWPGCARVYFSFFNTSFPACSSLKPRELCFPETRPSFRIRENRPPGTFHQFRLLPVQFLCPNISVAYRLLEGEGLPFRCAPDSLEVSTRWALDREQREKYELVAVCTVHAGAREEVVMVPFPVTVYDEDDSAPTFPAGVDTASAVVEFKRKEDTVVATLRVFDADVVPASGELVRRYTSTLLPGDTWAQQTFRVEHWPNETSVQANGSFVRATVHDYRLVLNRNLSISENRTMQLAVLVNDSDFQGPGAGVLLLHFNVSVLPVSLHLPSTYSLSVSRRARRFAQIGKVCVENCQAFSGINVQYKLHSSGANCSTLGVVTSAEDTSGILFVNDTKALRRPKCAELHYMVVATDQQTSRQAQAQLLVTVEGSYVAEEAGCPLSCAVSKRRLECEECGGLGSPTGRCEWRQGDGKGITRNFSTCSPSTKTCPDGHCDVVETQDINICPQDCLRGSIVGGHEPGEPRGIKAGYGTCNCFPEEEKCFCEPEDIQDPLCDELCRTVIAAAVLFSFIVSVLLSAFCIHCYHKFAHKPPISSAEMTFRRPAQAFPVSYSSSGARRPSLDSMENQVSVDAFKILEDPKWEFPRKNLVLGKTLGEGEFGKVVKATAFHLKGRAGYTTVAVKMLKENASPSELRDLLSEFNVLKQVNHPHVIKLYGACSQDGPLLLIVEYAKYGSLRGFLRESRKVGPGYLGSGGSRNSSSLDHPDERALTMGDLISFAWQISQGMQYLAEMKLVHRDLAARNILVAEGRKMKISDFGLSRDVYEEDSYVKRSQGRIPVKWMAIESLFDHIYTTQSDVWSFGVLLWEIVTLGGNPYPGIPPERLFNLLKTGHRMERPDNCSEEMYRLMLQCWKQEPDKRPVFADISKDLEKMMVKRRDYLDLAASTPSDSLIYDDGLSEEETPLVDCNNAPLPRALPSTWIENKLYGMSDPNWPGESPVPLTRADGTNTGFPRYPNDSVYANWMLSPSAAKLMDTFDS
T1 sequence (P07949 29-1114): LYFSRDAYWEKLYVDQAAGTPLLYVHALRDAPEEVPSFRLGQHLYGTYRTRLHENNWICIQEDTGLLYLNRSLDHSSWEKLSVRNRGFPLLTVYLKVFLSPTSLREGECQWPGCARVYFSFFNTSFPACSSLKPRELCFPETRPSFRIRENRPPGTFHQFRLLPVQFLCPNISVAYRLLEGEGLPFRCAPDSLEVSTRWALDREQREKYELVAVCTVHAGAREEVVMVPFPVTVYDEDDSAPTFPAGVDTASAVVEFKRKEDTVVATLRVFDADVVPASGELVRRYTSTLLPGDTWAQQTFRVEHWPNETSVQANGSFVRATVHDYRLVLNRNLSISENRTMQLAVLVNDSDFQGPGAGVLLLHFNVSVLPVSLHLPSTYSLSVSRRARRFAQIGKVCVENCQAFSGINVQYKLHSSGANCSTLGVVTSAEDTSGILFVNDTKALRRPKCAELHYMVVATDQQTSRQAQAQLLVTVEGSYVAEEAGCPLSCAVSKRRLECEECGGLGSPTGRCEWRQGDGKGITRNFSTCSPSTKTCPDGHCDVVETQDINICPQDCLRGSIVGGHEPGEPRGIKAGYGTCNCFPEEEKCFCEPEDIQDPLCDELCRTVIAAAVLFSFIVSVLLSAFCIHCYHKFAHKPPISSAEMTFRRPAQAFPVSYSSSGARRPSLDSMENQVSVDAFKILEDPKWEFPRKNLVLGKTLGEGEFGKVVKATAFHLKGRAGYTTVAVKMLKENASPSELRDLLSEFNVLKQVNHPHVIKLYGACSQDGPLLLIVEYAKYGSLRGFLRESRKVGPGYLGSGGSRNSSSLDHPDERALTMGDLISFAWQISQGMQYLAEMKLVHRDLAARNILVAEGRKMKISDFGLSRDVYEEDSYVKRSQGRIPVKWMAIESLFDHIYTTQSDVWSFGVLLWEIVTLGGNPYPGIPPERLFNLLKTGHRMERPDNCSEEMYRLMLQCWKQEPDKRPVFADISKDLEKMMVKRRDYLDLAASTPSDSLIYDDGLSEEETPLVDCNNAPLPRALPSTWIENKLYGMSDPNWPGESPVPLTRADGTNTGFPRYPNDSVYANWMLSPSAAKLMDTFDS
T2 sequence (Q96GD4 whole entry): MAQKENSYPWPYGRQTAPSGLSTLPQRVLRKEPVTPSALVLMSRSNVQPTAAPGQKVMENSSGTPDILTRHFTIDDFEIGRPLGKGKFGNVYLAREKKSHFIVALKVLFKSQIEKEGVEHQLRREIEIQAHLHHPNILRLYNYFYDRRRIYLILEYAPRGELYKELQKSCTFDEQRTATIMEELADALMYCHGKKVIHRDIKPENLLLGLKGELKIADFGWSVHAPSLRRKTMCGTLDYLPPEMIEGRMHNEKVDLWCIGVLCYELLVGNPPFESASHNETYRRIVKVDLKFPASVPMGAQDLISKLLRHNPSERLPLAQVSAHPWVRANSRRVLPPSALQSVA
T2 sequence (Q9NQS7 803-918 partner limits assumed): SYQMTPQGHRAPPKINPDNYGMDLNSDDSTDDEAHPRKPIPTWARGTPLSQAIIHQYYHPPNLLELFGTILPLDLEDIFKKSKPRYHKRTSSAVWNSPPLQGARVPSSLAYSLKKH
T5 sequence (P07949 whole entry G810R, the tested form may be a part): as the sequence (P07949 whole entry, change not shown, the tested form may be a part) above, with G810R counted along it
T4 sequence (P07949 whole entry V804M, the tested form may be a part): as the sequence (P07949 whole entry, change not shown, the tested form may be a part) above, with V804M counted along it
Sequence of BA/F3-KIF5B-RET M918T cells (P07949 whole entry M918T, form open): as the sequence (P07949 whole entry, change not shown, the tested form may be a part) above, with M918T counted along it
T6 sequence (P35968 20-1356): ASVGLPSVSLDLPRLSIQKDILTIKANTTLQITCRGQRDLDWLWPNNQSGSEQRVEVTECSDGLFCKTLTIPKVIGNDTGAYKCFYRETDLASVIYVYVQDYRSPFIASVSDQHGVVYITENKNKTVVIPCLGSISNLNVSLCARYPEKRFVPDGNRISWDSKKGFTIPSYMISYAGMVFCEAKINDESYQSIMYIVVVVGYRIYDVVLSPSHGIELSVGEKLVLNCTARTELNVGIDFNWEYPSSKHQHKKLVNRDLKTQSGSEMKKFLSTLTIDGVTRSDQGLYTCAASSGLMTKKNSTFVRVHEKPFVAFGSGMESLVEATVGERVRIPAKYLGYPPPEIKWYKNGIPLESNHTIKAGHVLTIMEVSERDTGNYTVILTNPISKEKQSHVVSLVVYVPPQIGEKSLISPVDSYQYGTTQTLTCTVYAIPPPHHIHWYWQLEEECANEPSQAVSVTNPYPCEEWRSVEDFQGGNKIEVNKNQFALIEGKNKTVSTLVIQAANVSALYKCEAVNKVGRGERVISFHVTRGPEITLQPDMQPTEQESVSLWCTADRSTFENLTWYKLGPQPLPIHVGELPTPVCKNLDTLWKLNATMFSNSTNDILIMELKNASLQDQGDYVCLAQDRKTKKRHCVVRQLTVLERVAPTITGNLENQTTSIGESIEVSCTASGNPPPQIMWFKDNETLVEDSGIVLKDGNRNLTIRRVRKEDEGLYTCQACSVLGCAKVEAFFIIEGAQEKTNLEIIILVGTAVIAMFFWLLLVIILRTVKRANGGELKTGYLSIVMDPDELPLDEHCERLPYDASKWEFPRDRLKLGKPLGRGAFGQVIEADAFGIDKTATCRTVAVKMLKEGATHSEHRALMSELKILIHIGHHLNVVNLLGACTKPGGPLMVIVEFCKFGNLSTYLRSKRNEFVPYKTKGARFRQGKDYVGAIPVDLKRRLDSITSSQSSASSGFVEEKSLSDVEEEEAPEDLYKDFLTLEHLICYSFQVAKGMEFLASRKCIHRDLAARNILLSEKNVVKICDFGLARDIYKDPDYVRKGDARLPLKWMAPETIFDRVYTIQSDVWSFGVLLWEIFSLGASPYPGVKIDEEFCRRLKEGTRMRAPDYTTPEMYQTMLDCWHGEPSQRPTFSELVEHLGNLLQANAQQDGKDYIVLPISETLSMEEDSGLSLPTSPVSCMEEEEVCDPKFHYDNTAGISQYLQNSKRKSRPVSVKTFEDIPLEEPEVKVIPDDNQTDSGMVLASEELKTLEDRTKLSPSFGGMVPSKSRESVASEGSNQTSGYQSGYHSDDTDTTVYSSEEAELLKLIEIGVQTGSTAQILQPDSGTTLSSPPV

Compound	IC50 [1]	IC50 [2]	IC50 [3]	GI50 [4, 9]	GI50 [4, 10]	GI50 [5]	GI50 [6]	GI50 [7]	IC50 [8]
COc1ccc(CN2C3CC2CN(c2ccc(-c4cc(-c5ccc(C(C)(C)O)cn5)cn5ncc(C#N)c45)cn2)C3)cn1 [Example 9, 6-(5-(2-hydroxypropan-2-yl)pyridin-2-yl)-4-(6-(6-((6-methoxypyridin-3-yl)methyl)-3,6-diazabicyclo[3.1.1]heptan-3-yl)pyridin-3-yl)pyrazolo[1,5-a]pyridine-3-carbonitrile]	0.58 nM	80 nM	1130 nM	0.6 nM	0.6 nM	4.8 nM	54.6 nM	13.2 nM	–
COc1ccc(CN2C3CC2CN(c2ccc(-c4cc(-c5cnc(C(C)(C)O)nc5)cn5ncc(C#N)c45)cn2)C3)cn1 [Example 10, 6-(2-(2-hydroxypropan-2-yl)pyrimidin-5-yl)-4-(6-(6-((6-methoxypyridin-3-yl)methyl)-3,6-diazabicyclo[3.1.1]heptan-3-yl)pyridin-3-yl)pyrazolo[1,5-a]pyridine-3-carbonitrile]	3.5 nM	743 nM	> 10000 nM	30.5 nM	–	–	–	–	–
COc1ccc(CN2C3CC2CN(c2ccc(-c4cc(-c5ccc(C6(O)CC6)cn5)cn5ncc(C#N)c45)cn2)C3)cn1 [Example 11, 6-(5-(1-hydroxycyclopropyl)pyridin-2-yl)-4-(6-(6-((6-methoxypyridin-3-yl)methyl)-3,6-diazabicyclo[3.1.1]heptan-3-yl)pyridin-3-yl)pyrazolo[1,5-a]pyridine-3-carbonitrile]	0.6 nM	66.4 nM	3060 nM	0.9 nM	–	–	–	–	–
COc1ccc(CN2C3CC2CN(c2ccc(-c4cc(-c5ncc(C(C)(C)O)cn5)cn5ncc(C#N)c45)cn2)C3)cn1 [Example 13, 6-(5-(2-hydroxypropan-2-yl)pyrimidin-2-yl)-4-(6-(6-((6-methoxypyridin-3-yl)methyl)-3,6-diazabicyclo[3.1.1]heptan-3-yl)pyridin-3-yl)pyrazolo[1,5-a]pyridine-3-carbonitrile]	0.4 nM	183 nM	2670 nM	2.2 nM	–	–	–	–	–
CC(C)(O)c1ccc(-c2cc(-c3ccc(N4C5CC6CC4CC(NC(=O)c4ncccc4Cl)(C6)C5)nc3)c3c(C#N)cnn3c2)nc1 [Example 23, 3-chloro-N-((1R,3S,5s,7s)-2-(5-(3-cyano-6-(5-(2-hydroxypropan-2-yl)pyridin-2-yl)pyrazolo[1,5-a]pyridin-4-yl)pyridin-2-yl)-2-azaadamantan-5-yl)picolinamide]	1.7 nM	–	1140 nM	0.5 nM	–	–	–	–	4.2 nM
CCC(=O)c1ccc(-c2cc(-c3ccc(N4CC5CC(C4)N5Cc4ccc(OC)nc4)nc3)c3c(C#N)cnn3c2)nc1 [Example 37, 4-(6-(6-((6-methoxypyridin-3-yl)methyl)-3,6-diazabicyclo[3.1.1]heptan-3-yl)pyridin-3-yl)-6-(5-propionylpyridin-2-yl)pyrazolo[1,5-a]pyridine-3-carbonitrile]	0.7 nM	138 nM	4460 nM	1.2 nM	–	–	–	–	–
COc1ccc(CN2C3CC2CN(c2ccc(-c4cc(OCC(C)(C)O)cn5ncc(C#N)c45)cn2)C3)cn1 [Loxo-292, reference compound]	–	–	–	–	3.3 nM	43.6 nM	624 nM	46.9 nM	–
